The results in this text go back to ChEMBL document CHEMBL3612018, “Discovery of a Potent and Selective ROMK Inhibitor with Pharmacokinetic Properties Suitable for Preclinical Evaluation” (ACS Med Chem Lett, 2015).

The species entered for data set [1] is Rattus norvegicus. The conditions noted are these: in vivo, po, 2 mg/kg.
The species entered for data set [2] is Rattus norvegicus. The conditions noted are these: in vivo, iv, 1 mg/kg.
For data set [3], the species on record is Rattus norvegicus. The conditions noted are these: in vivo, iv, 0.5 mg/kg.
The nature of data set [4]: in vivo. The conditions noted are these: Sprague-Dawley, rat.
The nature of data set [5]: in vivo. To be noted: Sprague-Dawley, rat, po, 2 mg/kg.
The nature of data set [6]: in vivo. The conditions noted are these: Sprague-Dawley, rat. This is another data set of the same source.

`O=C1OCc2cc(CCN3CCN(C(=O)Cc4ccc(-n5cnnn5)cc4)CC3)ccc21` displayed an AUC/dose in data set [1] of 0.34 µM·kg·h/mg. This molecule also had a clearance in data set [2] of 40 mL/min/kg.

`COc1cc(CCN2CCN(CC(O)c3ccc4c(c3C)COC4=O)CC2)ccc1C#N` (stereo not drawn): the clearance in data set [3] is 33 mL/min/kg. Further, the AUC/dose in data set [1] is 0.46 µM·kg·h/mg. The half-life in data set [4] is 0.83 h. The bioavailability in data set [5] was 39%.

In data set [3], `COc1cc(C(O)CN2CCN(CCc3ccc4c(c3C)COC4=O)CC2)ccc1C#N` (stereo not drawn) showed a clearance of 40 mL/min/kg. In data set [1], this molecule registered an AUC/dose of 0.35 µM·kg·h/mg. In data set [4], this molecule had a half-life of 1.3 h. This molecule came in with a bioavailability in data set [5] of 37%.

In turn, `COc1cc(C(O)CN2CCN(CCc3ccc4c(c3C)COC4=O)CC2)ncc1C#N` (stereo not drawn) displayed a clearance in data set [3] of 40 mL/min/kg. This molecule also came in with an AUC/dose in data set [1] of 0.74 µM·kg·h/mg. In addition, the half-life in data set [4] was 1.5 h. Further, the bioavailability in data set [5] stood at 78%.

Turning to `Cc1nc(C(O)CN2CCN(C[C@H](O)c3ccc4c(c3C)COC4=O)CC2)ccc1C#N` (stereo in doubt; 35), the AUC/dose in data set [1] was determined as 1.3 µM·kg·h/mg. The molecule further yielded a clearance in data set [2] of 25 mL/min/kg. The bioavailability in data set [5] turned out to be 81%. The molecule further showed a half-life in data set [6] of 1.4 h.
